This assay concerns the target T1, GRK6, recombinant full-length GST-tagged human protein (Homo sapiens, UniProt P43250).
T1 construct: Enzyme: 20 nM GRK6, recombinant full-length GST-tagged human protein; GST
Description: GRK6 assay, IC50 determination (8-point concentration-response). It counts as biochemical. The procedure:
The following assay conditions were used.
Buffer: 50 mM TRIS-HCl, pH 7.5, 5 mM MgCl2, 2 mM DTT, 0.01% Triton X-100, 10 μM Na3VO4, 10 μM b-GP, 1% DMSO
Enzyme: 20 nM GRK6, recombinant full-length GST-tagged human protein
Peptide substrate (Peptide 216): 1 μM
One hundred two compounds (1-1-1-102) were further characterized by determining IC50 values in a GRK6 assay. This screen has been previously described in WO 2013/063458, which is incorporated by reference in its entirety herein. Briefly, the following activities were performed: 8-point concentration-response determinations in singlicate wells (top concentration=60 μM, 3-fold dilution steps); Repeat tests for QC failed or inconclusive compounds; and Repeat tests (titrate down) for compounds with >50% inhibition at all tested concentrations.
Twelve compounds (2-1-2-12) were further characterized by determining the IC50 values in a GRK6 assay. This screen has been previously described in WO 2013/063458, which is incorporated by reference in its entirety herein. Specific activities were performed as described above (Example 18).
Thirty-six compounds (3-1-3-36) were further characterized by determining the IC50 values in a GRK6 assay. This screen has been previously described in WO 2013/063458, which is incorporated by reference in its entirety herein. Specific activities were performed as described above (Example 18).
Fifty-four compounds (4-1-4-54) were further characterized by determining the IC50 values in a GRK6 assay. This screen has been previously described in WO 2013/063458, which is incorporated by reference in its entirety herein. Specific activities were performed as described above (Example 18).

Setting [1] is: Series 3 (Table 13), conditions as Example 18.
Where [2] appears, read: Series 2 (Table 12), conditions as Example 18.
Setting [3] is: Series 1 (Table 11), 20 nM GRK6, ATP 12 μM (Km), Peptide 216 1 μM, incubation 7 h.
The mark [4] stands for this setting: Series 4 (Table 14), conditions as Example 18.

T1 sequence (P43250 whole entry): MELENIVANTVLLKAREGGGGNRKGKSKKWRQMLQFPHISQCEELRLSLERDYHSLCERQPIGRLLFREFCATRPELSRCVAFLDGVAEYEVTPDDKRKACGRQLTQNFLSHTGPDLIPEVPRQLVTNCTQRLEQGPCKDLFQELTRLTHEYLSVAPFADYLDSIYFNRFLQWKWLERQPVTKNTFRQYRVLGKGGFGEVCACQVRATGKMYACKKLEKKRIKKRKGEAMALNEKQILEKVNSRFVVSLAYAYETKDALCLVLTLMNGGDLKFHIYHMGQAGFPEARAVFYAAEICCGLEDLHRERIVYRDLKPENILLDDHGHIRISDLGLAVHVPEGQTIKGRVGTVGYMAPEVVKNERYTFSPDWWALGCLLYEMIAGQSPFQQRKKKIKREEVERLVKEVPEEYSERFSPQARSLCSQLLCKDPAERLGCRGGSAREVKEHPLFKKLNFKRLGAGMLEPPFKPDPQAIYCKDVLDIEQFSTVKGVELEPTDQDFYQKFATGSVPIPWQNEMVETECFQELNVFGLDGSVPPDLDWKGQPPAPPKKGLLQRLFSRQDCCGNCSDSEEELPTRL

As usually defined, the IC50 is the concentration at which inhibition is half-maximal. With `O=[N+]([O-])c1cc(-c2ccccc2)cc(-c2nnc(SCc3nnn[nH]3)[nH]2)c1` [Compound 3-36], under setting [1], the IC50 was determined as 9050 nM. `COc1cc(Cl)cc(-c2ccc(-c3cc(SCC(=O)O)n[nH]3)s2)c1` [Compound 2-4]: the half-inhibitory concentration (IC50) under setting [2] turned out to be 608 nM. For the molecule `O=C(O)CSc1nnc(-c2ccc(-c3cccc(OCc4cccc(Cl)c4)c3)o2)[nH]1` [Compound 1-24], the IC50 under setting [3] was 276 nM. `CSc1nc(-c2nnc(SCC(=O)O)[nH]2)ccc1C#N` [Compound 4-31]: the half-maximal inhibitory concentration (IC50) under setting [4] was 31200 nM.

For `FC(F)(F)c1cc(-c2ccc(-c3nnc(SCc4nnn[nH]4)[nH]3)o2)cc2cccnc12` [Compound 3-4], under setting [1], the half-maximal inhibitory concentration (IC50) was found to be 881 nM. Regarding `COc1ccc2cc(-c3oc(-c4nnc(SCC(=O)O)[nH]4)cc3C#CCO)ccc2c1` [Compound 1-31], the IC50 under setting [3] was 324 nM. On to `O=C(O)CSc1nnc(-c2ccc(Cn3c4ccccc4c4ccccc43)o2)[nH]1` [Compound 1-89], for which the IC50 under setting [3] was 2020 nM. For `COc1ccc(-c2ccc(-c3nnc(SCC(=O)O)[nH]3)o2)cc1/C=N/OCc1ccccc1` [Compound 1-66], the IC50 under setting [3] came out at 734 nM. As for `O=C(O)CSc1nnc(-c2cc3ccccc3s2)[nH]1` [Compound 4-8], under setting [4], the IC50 was found to be 2580 nM.

As to `Cc1ncsc1-c1nnc(SCC(=O)O)[nH]1` [Compound 4-51], under setting [4], the IC50 was > 100000 nM.

Regarding `O=C(O)CSc1nnc(-c2ccc(-c3ccc(Cl)s3)o2)[nH]1` [Compound 1-76, 2-((5-(5-(5-chlorothiophen-2-yl)furan-2-yl)-4H-1,2,4-triazol-3-yl)thio)acetic acid], the half-inhibitory concentration (IC50) under setting [3] was determined as 1120 nM. On to `Cc1noc(C)c1-c1nnc(SCC(=O)O)[nH]1` [Compound 4-40], for which the half-maximal inhibitory concentration (IC50) under setting [4] was > 100000 nM.

`COC(=O)CSc1nnc(-c2ccc(C#Cc3ccc4ccccc4c3)o2)[nH]1` [Compound 1-102]: the IC50 under setting [3] was 8250 nM. Still for that read-out and setting: in the case of `O=C(O)CSc1nnc(-c2ccc(-c3ccc4[nH]cc(-c5ccccc5)c4c3)o2)[nH]1` [Compound 1-1] it was 79 nM. Consider `Cc1nc[nH]c1-c1nnc(SCC(=O)O)[nH]1` [Compound 4-50], for which, under setting [4], the IC50 was > 100000 nM. As to `COc1cc(-c2ccc(-c3nnc(SCc4nnn[nH]4)[nH]3)o2)cc(C(F)(F)F)c1` [Compound 3-13], the IC50 under setting [1] was found to be 2160 nM.

For `c1ccc(-c2cccc(-c3ccc(-c4nnc(SCc5nnn[nH]5)[nH]4)o3)c2)cc1` [Compound 3-5], the IC50 under setting [1] was determined as 900 nM. Consider `O=C(O)CSc1nnc(-c2ccc(-c3cc4cc(F)ccc4[nH]3)o2)[nH]1` [Compound 1-57], for which the 50% inhibitory concentration (IC50) under setting [3] amounted to 608 nM.

For `O=C(O)CSc1nnc(-c2ccc(-c3ccc(Oc4ccccc4)cc3)o2)[nH]1` [Compound 1-25], the IC50 under setting [3] was determined as 284 nM.

Consider `CCCOc1ccc(-c2ccc(-c3nnc(SCC(=O)O)[nH]3)o2)cc1Cl` [Compound 1-27], for which the IC50 under setting [3] amounted to 309 nM. For `CCOc1cccc(-c2ccc(-c3nnc(SCC(=O)O)[nH]3)o2)c1` [Compound 1-64], under setting [3], the half-maximal inhibitory concentration (IC50) came out at 711 nM. As for `COc1ccc2cc(-c3ccc(-c4nnc(SCc5nnn[nH]5)[nH]4)o3)ccc2c1` [Compound 3-11], under setting [1], the concentration for half-maximal inhibition (IC50) amounted to 1530 nM. Take `NC(=O)Cn1cc(-c2nnc(SCC(=O)O)[nH]2)c2ccccc21` [Compound 4-39]: under setting [4], the half-maximal inhibitory concentration (IC50) is > 100000 nM.

Regarding `O=C(O)CSc1nnc(-c2ccc(-c3ccccc3Cl)o2)[nH]1` [Compound 1-85], under setting [3], the 50% inhibitory concentration (IC50) was determined as 1440 nM. For `Fc1cccc(-c2ccc(-c3nnc(SCc4nnn[nH]4)[nH]3)o2)c1F` [Compound 3-26], the IC50 under setting [1] worked out at 5520 nM. Regarding `O=C(O)CSc1cc(-c2ccc(-c3ccc(Cl)c(Cl)c3)s2)[nH]n1` [Compound 2-2], the IC50 under setting [2] was 402 nM. As for `COc1ccc2cc(C#Cc3ccc(-c4cc(SCC(=O)O)n[nH]4)o3)ccc2c1` [Compound 2-5], the IC50 under setting [2] is 626 nM. For the molecule `N#Cc1ccc(-c2ccc(-c3nnc(SCc4nnn[nH]4)[nH]3)o2)cc1` [Compound 3-33], the IC50 under setting [1] is 8910 nM. On the same count and under the same terms, in the case of `c1cnc2ccc(-c3ccc(-c4nnc(SCc5nnn[nH]5)[nH]4)o3)cc2c1` [Compound 3-3] it was 667 nM. For the molecule `N#Cc1ccc2[nH]c(-c3ccc(-c4nnc(SCC(=O)O)[nH]4)o3)cc2c1` [Compound 1-18], the IC50 under setting [3] worked out at 250 nM. With `c1ccc2cc(-c3ccc(-c4nnc(SCc5nnn[nH]5)[nH]4)o3)ccc2c1` [Compound 3-1], under setting [1], the IC50 was 442 nM. Consider `Cc1nc(-c2nnc(SCC(=O)O)[nH]2)c2ccccn12` [Compound 4-46], for which the half-maximal inhibitory concentration (IC50) under setting [4] is > 80000 nM.

In the case of `NS(=O)(=O)c1cccc(-c2ccc(-c3nnc(SCC(=O)O)[nH]3)o2)c1` [Compound 1-45], the IC50 under setting [3] came to 413 nM. Same read-out and setting: in the case of `O=C(O)CSc1nnc(-c2ccc(-c3ccc(Cl)cc3)o2)[nH]1` [Compound 1-50] it was 473 nM; in that of `Cc1cc2cc(-c3ccc(-c4nnc(SCC(=O)O)[nH]4)o3)ccc2n1C` [Compound 1-69], 828 nM. For the molecule `CS(=O)(=O)Nc1ccc(-c2ccc(-c3nnc(SCc4nnn[nH]4)[nH]3)o2)cc1` [Compound 3-21], the concentration for half-maximal inhibition (IC50) under setting [1] worked out at 3710 nM.

For `O=C(O)CSc1nnc(-c2ccc(-c3cccc4[nH]c(-c5ccccc5)cc34)o2)[nH]1` [Compound 1-5], under setting [3], the half-maximal inhibitory concentration (IC50) was 137 nM. The same measure, in the same setting: in the case of `CO/N=C/c1cc(-c2ccc(-c3nnc(SCC(=O)O)[nH]3)o2)ccc1OC` [Compound 1-71] it was 875 nM; in that of `O=C(O)CSc1nnc(-c2ccc(-c3cccc(OCc4cccc([N+](=O)[O-])c4)c3)o2)[nH]1` [Compound 1-2], 126 nM. The same measure, in the same setting: for `O=C(O)CSc1nnc(-c2ccc(-c3c[nH]c4ccccc34)o2)[nH]1` [Compound 1-55] the value was 563 nM; for `O=C(O)CSc1nnc(-c2ccc(-c3ccc4ncccc4c3)o2)[nH]1` [Compound 1-30, 2-((3-(5-(quinolin-6-yl)furan-2-yl)-1H-1,2,4-triazol-5-yl)thio)acetic acid], 315 nM. On the same count and under the same terms, in the case of `Cc1cc(-c2ccc(-c3nnc(SCC(=O)O)[nH]3)o2)ccc1Cl` [Compound 1-42] it was 392 nM. For `O=c1[nH]c2ccc(-c3ccc(-c4nnc(SCc5nnn[nH]5)[nH]4)o3)cc2[nH]1` [Compound 3-10], the IC50 under setting [1] worked out at 1510 nM.

On to `O=C(O)CSc1nnc(-c2ccc(-c3cccc(OCc4ccc5ccccc5c4)c3)o2)[nH]1` [Compound 1-48], for which, under setting [3], the IC50 amounted to 458 nM.

Consider `Fc1cc(-c2ccc(-c3nnc(SCc4nnn[nH]4)[nH]3)o2)cc(F)c1F` [Compound 3-24], for which, under setting [1], the concentration for half-maximal inhibition (IC50) is 3830 nM. Still for that read-out and setting: for `N#Cc1cccc(-c2ccc(-c3nnc(SCc4nnn[nH]4)[nH]3)o2)c1` [Compound 3-20] the value was 3620 nM. On to `C#Cc1ccc(-c2nnc(SCC(=O)O)[nH]2)o1` [Compound 1-93], for which the concentration for half-maximal inhibition (IC50) under setting [3] was determined as 2300 nM.

As for `CCOC(=O)c1ccc(-c2ccc(-c3nnc(SCC(=O)O)[nH]3)o2)cc1` [Compound 1-74], under setting [3], the IC50 was determined as 1020 nM.

As for `c1ccc2ncc(-c3ccc(-c4nnc(SCc5nnn[nH]5)[nH]4)o3)cc2c1` [Compound 3-6], the IC50 under setting [1] turned out to be 1100 nM. `CCOc1ccc(-c2ccc(-c3nnc(SCC(=O)O)[nH]3)o2)cc1Cl` [Compound 1-51]: the IC50 under setting [3] amounted to 497 nM. Take `COc1cccc(-c2ccc(-c3nnc(SCC(=O)O)[nH]3)o2)c1` [Compound 1-44]: the IC50 under setting [3] amounted to 402 nM.

As to `O=C(O)CSc1nnc(-c2ccc(-c3ccc4sccc4c3)o2)[nH]1` [Compound 1-26], the IC50 under setting [3] was determined as 285 nM. The same measure, in the same setting: in the case of `O=C(O)CSc1nnc(-c2ccc(-c3ccc4c(c3)CCC(=O)N4)o2)[nH]1` [Compound 1-72] it was 987 nM. As to `O=C(O)CSc1cc(-c2ccc(Br)o2)[nH]n1` [Compound 2-11], the concentration for half-maximal inhibition (IC50) under setting [2] came out at 5440 nM. With `Cc1ncc(-c2nnc(SCC(=O)O)[nH]2)cn1` [Compound 4-30], the IC50 under setting [4] was determined as 27800 nM. `COc1ccc2cc(-c3[nH]nc(SCC(=O)O)c3Br)ccc2c1` [Compound 4-53]: the half-maximal inhibitory concentration (IC50) under setting [4] is > 100000 nM. Consider `O=C(O)CSc1nnc(-c2ccc(C(c3ccccc3)c3ccccc3)o2)[nH]1` [Compound 1-101], for which the IC50 under setting [3] was determined as 6710 nM. Same read-out and setting: in the case of `O=C(O)CSc1nnc(-c2ccc(-c3ccc(F)c(Cl)c3)o2)[nH]1` [Compound 1-29] it was 314 nM. On to `O=C(O)CSc1nnc(-c2cnc3cc(OCc4ccccc4)ccc3c2)[nH]1` [Compound 4-2], for which the half-inhibitory concentration (IC50) under setting [4] came to 780 nM. For the molecule `O=C(O)CSc1nnc(-c2ccc(-c3ccc4[nH]c(-c5ccccc5)cc4c3)o2)[nH]1` [Compound 1-4], the IC50 under setting [3] turned out to be 133 nM.

Turning to `CN(C)S(=O)(=O)c1cccc(-c2ccc(-c3nnc(SCc4nnn[nH]4)[nH]3)o2)c1` [Compound 3-34], the half-inhibitory concentration (IC50) under setting [1] is 9090 nM.

`Cc1n[nH]c(C)c1-c1ccc(-c2nnc(SCC(=O)O)[nH]2)o1` [Compound 1-99]: the IC50 under setting [3] amounted to 4370 nM. On the same count and under the same terms, in the case of `CC(C)CCn1ccc(-c2ccc(-c3nnc(SCC(=O)O)[nH]3)o2)n1` [Compound 1-78] it was 1170 nM. In the case of `COc1ccc2cc(-c3oc(-c4nnc(SCC(=O)O)[nH]4)cc3Br)ccc2c1` [Compound 1-49], the concentration for half-maximal inhibition (IC50) under setting [3] is 458 nM.
